Laboratory results as given in ChEMBL document CHEMBL3044566, “Synthesis and anticancer activity of some new s-triazine derivatives” (Med Chem Res, 2013).

Columns and labels:
Type in all cases: functional, cell-based
HT-29 = assay: Cytotoxicity against human HT-29 cells after 24 hrs by MTT assay; conditions: HT-29, 24 h
PA-1 = assay: Cytotoxicity against human PA1 cells after 24 hrs by MTT assay; conditions: PA-1, 24 h
A549 = assay: Cytotoxicity against human A549 cells after 24 hrs by MTT assay; conditions: A549, 24 h
MCF7 = assay: Cytotoxicity against human MCF7 cells after 24 hrs by MTT assay; conditions: MCF7, 24 h

Row | Structure (SMILES) | IC50 (HT-29) [µM] | IC50 (PA-1) [µM] | IC50 (A549) [µM] | IC50 (MCF7) [µM]
1 | c1ccc(CNc2nc(Nc3ccc(-c4nc5ccccc5o4)cc3)nc(N3CCOCC3)n2)cc1 | 0.92 | 10.5 | 23.4 | 2.46
2 | Clc1nc(Nc2ccccc2)nc(Nc2ccc(-c3nc4ccccc4o3)cc2)n1 | 32.6 | 169 | 225 | 55.2
3 | Fc1ccc(Nc2nc(Cl)nc(Nc3ccc(-c4nc5ccccc5o4)cc3)n2)cc1 | 47 | 186 | 254 | 68.4
4 | Fc1ccc(Nc2nc(Nc3ccc(-c4nc5ccccc5o4)cc3)nc(N3CCOCC3)n2)cc1 | 0.31 | 0.45 | 26.7 | 12.3
5 | COc1cccc2c1C(=O)c1c(O)c3c(c(O)c1C2=O)C[C@@](O)(C(=O)CO)C[C@@H]3O[C@H]1C[C@H](N)[C@H](O)[C@H](C)O1 [DOXORUBICIN] | 1.76 | 0.64 | – | 10.9
6 | COc1ccc(Nc2nc(Cl)nc(Nc3ccc(-c4nc5ccccc5o4)cc3)n2)cc1 | 139 | 172 | 278 | 270
7 | COc1ccc(Nc2nc(Nc3ccc(-c4nc5ccccc5o4)cc3)nc(N3CCOCC3)n2)cc1 | 0.14 | 0.25 | 12.9 | 6.48
8 | Clc1nc(NCc2ccccc2)nc(Nc2ccc(-c3nc4ccccc4o3)cc2)n1 | 44 | 195 | 296 | 66.1
9 | c1ccc(Nc2nc(Nc3ccc(-c4nc5ccccc5o4)cc3)nc(N3CCOCC3)n2)cc1 | 0.27 | 0.61 | 22 | 10.6
